Tested on: cotton aphid (Aphis gossypii)
Experiment: Foliar spray test on cotton seedlings infested with cotton aphid
Assay type: in vivo
Settings: 72 h, read-out: Percent Mortality
Experimental: Insecticidal testing was conducted on specific compounds of the present invention. Specifically, the compounds referenced below were evaluated on 7-10 day old cotton seedlings infested with cotton aphid (Aphis gossypii). At least 12 hours prior to the test, leaf cuttings containing about 50 adult aphids were placed on leaves of each of duplicate cotton seedlings for each rate of application of compound of formula (I). Solutions of the compounds of formula (I) were prepared for testing by serial dilution of a standard solution comprised of an appropriate amount of the test material in a water/acetone solvent, which contained a small amount of a surfactant. Rates of application of compounds of formula (I) may range from about 1000 parts per million (ppm), or more, to about 3 ppm, or less, in a rate series of, for example, 1000 ppm, 300 ppm, 100 ppm, 30 ppm, 10 ppm, and 3 ppm. The solutions containing each rate of application of compounds of formula (I) were then sprayed to run-off to both the upper and lower portions of the leaves of the aphid-infested cotton seedlings. Each test of foliar-applied compounds of formula (I) included appropriate standard insecticides of known insecticidal activity and blank treatments to aid in assessing the insecticidal activity of the compounds of formula (I). Upon completion of the spraying with compounds of formula (I), the cotton seedlings were maintained in a growth chamber for a period of 72 hours. After this time, the seedlings were examined for dead insects. Insects were classified as dead if they were off-color or brown and desiccated. Upon completion of the evaluation of the test, the percent mortality of the cotton aphid for each rate of application of compounds of formula (I) was determined by comparison of the total number of dead insects to the total number of insects in the test.

Row | SMILES | mortality at 1000 ppm | mortality at 100 ppm
1 | CCCCOc1ccc(CCOn2c(C)nc(C)c2C)cc1Cl [Compound 9, 1-[2-(3-chloro-4-n-butoxyphenyl)ethoxy]-2,4,5-trimethylimidazole] | 100% | –
2 | Cc1nc2ccccc2n1OCCc1ccc(C(C)(C)C)c(Cl)c1 [Compound 135, 1-[2-[3-chloro-4-(1,1-dimethylethyl)phenyl]ethoxy]-2-methylbenzimidazole] | 86% | –
3 | CCCCOc1ccc(CCOn2c(C)nc3ccccc32)cc1Cl [Compound 163, 1-[2-(3-chloro-4-n-butoxyphenyl)ethoxy]-2-methylbenzimidazole] | 88% | –
4 | CCCCOc1ccc(CCOn2c(C)nc3c2CCCC3)cc1Cl [Compound 244, 1-[2-(3-chloro-4-n-butoxyphenyl)ethoxy]-2-methyl-4,5,6,7-tetrahydrobenzimidazole] | 98% | –
5 | CCCCOc1ccc(CCOn2c(C)nc3c(F)cccc32)cc1Cl [Compound 246, 1-[2-(3-chloro-4-n-butoxyphenyl)ethoxy]-4-fluoro-2-methylbenzimidazole] | 100% | –
6 | CCCCOc1ccc(CCOn2c(C)nc3c(C)cccc32)cc1Cl [Compound 266, 1-[2-(3-chloro-4-n-butoxyphenyl)ethoxy]-2,4-dimethylbenzimidazole] | 100% | –
7 | CCCCOc1ccc(CCOn2nnc3ccccc32)cc1Cl [Compound 285, 1-[2-(3-chloro-4-n-butoxyphenyl)ethoxy]-1H-benzotriazole] | 31% | –
8 | CCCOC(=O)c1ccc(CCNn2c(C)nc3ccccc32)cc1Cl [Compound 302, propyl 2-chloro-4-[2-(2-methylbenzimidazol-1-ylamino)ethyl]benzoate] | – | 84%
9 | CCCCOc1ccc(C(C)(C)CNn2c(C)nc3ccccc32)cc1 [Compound 305, 1-[[2-methyl-2-(4-n-butoxyphenyl)propyl]amino]-2-methylbenzimidazole] | 96% | –
10 | CCCCOc1ccc(CCNn2c(C)nc3ccccc32)cc1Cl [Compound 314, 1-[2-(3-chloro-4-n-butoxyphenyl)ethylamino]-2-methylbenzimidazole] | 100% | –
11 | CCCCOc1c(C)cc(CCNn2c(C)nc3ccccc32)cc1C [Compound 320, 1-[2-(3,5-dimethyl-4-n-butoxyphenyl)ethylamino]-2-methylbenzimidazole] | – | 99%
12 | CCCCOc1ccc(CCNn2c(C)nc3c(F)cccc32)cc1Cl [Compound 323, 1-[2-(3-chloro-4-n-butoxyphenyl)ethylamino]-4-fluoro-2-methylbenzimidazole] | – | 96%
13 | CCCCOc1c(C)cc(CCNn2c(C)nc3cc(F)ccc32)cc1C [Compound 329, 1-[2-(3,5-dimethyl-4-n-butoxyphenyl)ethylamino]-5-fluoro-2-methylbenzimidazole] | – | 93%
14 | CCCC(CCC)Oc1ccc(CCOn2c(C)nc3c(C)cccc32)cc1 [Compound 413, 1-[2-[4-(1-propylbutoxy)phenyl]ethoxy]-2,4-dimethylbenzimidazole] | – | 80%
15 | CCCCOc1ccc(CCNn2c(=O)n(C)c3ccccc32)cc1Cl [Compound 417, 1-[2-(3-chloro-4-n-butoxyphenyl)ethylamino]-1,3-dihydro-3-methyl-2H-benzimidazol-2-one] | – | 3%
16 | CCON=Cc1c(F)cc(CCOn2c(C)nc3ccccc32)cc1F [Compound 1323, 1-[2-(3,5-difluoro-4-ethoxyiminomethylphenyl)ethoxy]-2-methylbenzimidazole] | – | 97%

— US20070269664A1, “Gas Barrier Laminated Film and Process for Producing the Same” (Sai Nippon Printing Co., Ltd., priority 2004, published 2007)
